# Assay results reported in US20010044382A1, “Herbicide” (priority 1998, published 2001).
# Columns and labels:
# Format in all cases: in vivo
# Ipomoea = assay: Pre-emergence test (greenhouse), herbicidal action
# Experimental: (§1) Experiment Description—Pre-emergence Test:
# (§2) The test plants are sown in standard soil in plastics pots under greenhouse conditions. Directly after sowing, the test compounds are applied in aqueous suspension (500 liters of water/ha). The test plants are then grown on in the greenhouse under optimum conditions. The rates of application depend on the optimum doses ascertained under field conditions and greenhouse conditions. The tests are evaluated after 26 days (% action, 100%=plants have died, 0%=no phytotoxic action).
# Xanthium = assay: Pre-emergence test (greenhouse), herbicidal action
# Experimental: as §1, §2
# Polygonum = assay: Pre-emergence test (greenhouse), herbicidal action
# Experimental: as §1, §2
# Cyperus = assay: Post-emergence test (greenhouse), herbicidal action; conditions: primisulfuron 20 g/ha, after 20 days
# Experimental: (§3) Experiment Description—Post-emergence Test:
# (§4) The test plants are grown to the 2- to 3-leaf stage in plastics pots under greenhouse conditions. A standard soil is used as cultivation substrate. At the 2- to 3-leaf stage, the herbicide is applied to the test plants on its own and as a mixture. The application is carried out using an aqueous suspension of the test compounds in 500 liters of water/ha. The rates of application depend on the optimum doses ascertained under field conditions and greenhouse conditions. The tests are evaluated after 20 days (% action, 100%=plant has died, 0%=no phytotoxic action).
# Digitaria = assay: as above; conditions: halosulfuron 100 g/ha, after 20 days
# Experimental: as §3, §4
# [1] = atrazine 200 g/ha, after 26 days (Table 7)
# [2] = atrazine 200 g/ha, after 26 days (Table 5)
# [3] = terbuthylazine 200 g/ha, after 26 days (Table 4)
# [4] = terbuthylazine 200 g/ha, after 26 days (Table 6)
smiles,measurement,setting,value
"CCNc1nc(Cl)nc(NC(C)C)n1 [Atrazine, atrazine]",% action,Ipomoea; [1],70%
same,% action,Xanthium; [2],0%
same,% action,Xanthium; [1],0%
same,% action,Polygonum; [2],90%
"CCNc1nc(Cl)nc(NC(C)(C)C)n1 [Terbuthylazine, terbuthylazine]",% action,Ipomoea; [3],30%
same,% action,Ipomoea; [4],30%
same,% action,Xanthium; [3],0%
same,% action,Xanthium; [4],0%
same,% action,Polygonum; [3],60%
same,% action,Polygonum; [4],60%
"O=C(Nc1nc(OC(F)F)cc(OC(F)F)n1)NS(=O)(=O)c1ccccc1C(=O)O [Primisulfuron, primisulfuron]",% action,Cyperus,90%
"COc1cc(OC)nc(NC(=O)NS(=O)(=O)c2c(C(=O)O)c(Cl)nn2C)n1 [Halosulfuron, halosulfuron]",% action,Digitaria,25%
